Assay results published in US10130615B2, “Benzomorphan analogs and the use thereof” (priority 2014, dated 2018).

Assays:
[1] = molecular target: T1, μ-opioid receptor (Homo sapiens, UniProt P35372); assay: μ-opioid receptor GTPγS functional assay, U2OS cells; conditions: for Emax: read-out: GTPγS μ Emax
[2] = molecular target: κ-opioid receptor (Homo sapiens, UniProt P41145); assay: κ-opioid receptor GTPγS functional assay, U2OS cells; type: biochemical; parameters: expressed in transfected cells; host or cells: U-2 OS; conditions: U2OS cells; for EC50: read-out: GTPγS κ EC50
Chain of κ-opioid receptor (P41145 whole entry): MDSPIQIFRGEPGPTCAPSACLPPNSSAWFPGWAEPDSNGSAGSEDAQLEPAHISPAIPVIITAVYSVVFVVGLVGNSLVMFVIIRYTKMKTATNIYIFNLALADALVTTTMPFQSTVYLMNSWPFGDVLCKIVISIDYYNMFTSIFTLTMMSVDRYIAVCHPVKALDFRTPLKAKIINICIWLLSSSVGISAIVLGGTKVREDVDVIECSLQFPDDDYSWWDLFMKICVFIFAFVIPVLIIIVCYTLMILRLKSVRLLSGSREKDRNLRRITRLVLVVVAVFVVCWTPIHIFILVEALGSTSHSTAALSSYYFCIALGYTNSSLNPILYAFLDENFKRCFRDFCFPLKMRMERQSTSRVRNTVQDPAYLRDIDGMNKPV
Procedure: Plates were incubated for 30 min at a temperature of about 25° C. with shaking.

[3] = molecular target: T1, μ-opioid receptor; assay: biochemical; parameters: purchased Perkin Elmer, Shelton, Conn; host or cells: HEK-293 or CHO; conditions: HEK-293 or CHO cells; for EC50: read-out: GTPγS μ EC50; for Emax: relative to DAMGO, read-out: GTPγS μ Emax

T1 sequence (P35372 whole entry, species assumed): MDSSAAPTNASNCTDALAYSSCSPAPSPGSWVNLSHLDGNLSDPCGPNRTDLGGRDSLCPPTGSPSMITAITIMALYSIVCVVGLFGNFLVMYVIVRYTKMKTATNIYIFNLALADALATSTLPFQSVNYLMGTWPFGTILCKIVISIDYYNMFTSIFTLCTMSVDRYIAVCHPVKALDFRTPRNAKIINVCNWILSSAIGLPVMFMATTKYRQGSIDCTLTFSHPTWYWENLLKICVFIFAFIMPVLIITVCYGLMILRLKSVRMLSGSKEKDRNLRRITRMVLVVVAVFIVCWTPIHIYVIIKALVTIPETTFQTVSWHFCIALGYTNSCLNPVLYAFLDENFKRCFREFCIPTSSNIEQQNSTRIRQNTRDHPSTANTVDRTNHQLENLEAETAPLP

COc1ccc2c(c1)[C@]1(CCN(C)CCCN(C)C)CCN(C)[C@H](C2)[C@@H]1C [Compound 54]
EC50 [1]: 18700 ± 1890 nM | Emax [1]: 95 ± 2.65% | Emax [2]: 125 ± 1.53% | EC50 [2]: 9860 ± 349 nM

COc1ccc2c(c1)[C@@]1(CCNC3(C(=O)O)CC3)CCN(CC3CC3)[C@@H](C2)[C@H]1C [Compound 35, 1-((2-((2S,6S,11S)-3-(cyclopropyl-methyl)-8-methoxy-11-methyl-2,3,4,5-tetrahydro-2,6-methanobenzo[d]azocin-6(1H)-yl)ethyl)amino)cyclopropane-1-carboxylic acid]
EC50 [3]: 17500 ± 6780 nM | Emax [3]: 13 ± 1.53%

C[C@H]1[C@H]2Cc3ccc(O)cc3C1(CCNS(=O)(=O)N(C)C)CCN2CC1CC1 [Compound 9]
EC50 [1]: 0.67 ± 0.01 nM | Emax [1]: 27%

COc1ccc2c(c1)[C@]1(CCN3CCC(N(C4CC4)S(=O)(=O)c4ccc(Cl)cc4)CC3)CCN(C)[C@H](C2)[C@@H]1C [Compound 53, 4-chloro-N-cyclopropyl-N-(1-(2-((2R,6R,11R)-8-methoxy-3,11-dimethyl-2,3,4,5-tetrahydro-2,6-methanobenzo-[d]azocin-6(1H)-yl)ethyl)piperidin-4-yl)-benzenesulfonamide]
EC50 [1]: 1250 ± 85.4 nM | Emax [1]: 63.3 ± 2.03% | Emax [2]: 13.3 ± 2.19% | EC50 [2]: 7000 ± 3060 nM

C[C@H]1[C@H]2Cc3ccc(O)cc3[C@]1(CCNC(=O)[C@@H]1CCCC(=O)N1)CCN2CC1CC1 [Compound 82, (S)-N-(2-((2R,6R,11R)-3-(cyclopropyl-methyl)-8-hydroxy-11-methyl-2,3,4,5-tetrahydro-2,6-methanobenzo[d]azocin-6(1H)-yl)ethyl)-6-oxopiperidine-2-carboxamide]
EC50 [3]: 19.6 ± 9.39 nM | Emax [3]: 8.9 ± 0.9%

C[C@H]1[C@H]2Cc3ccc(O)cc3[C@]1(CCNC(=O)NS(=O)(=O)c1ccccc1)CCN2C [Compound 75, N-((2-((2R,6R,11R)-8-hydroxy-3,11-dimethyl-2,3,4,5-tetrahydro-2,6-methanobenzo[d]azocin-6(1H)-yl)-ethyl)carbamoyl)benzenesulfonamide]
EC50 [3]: 314 ± 30.2 nM | Emax [3]: 24.7 ± 0.17%

COC[C@@H]1CCCN1CC[C@]12CCN(C)[C@H](Cc3ccc(OC)cc31)[C@@H]2C [Compound 56, (2R,6S,11R)-8-methoxy-6-(2-((S)-2-(methoxymethyl)pyrrolidin-1-yl)ethyl)-3,11-dimethyl-1,2,3,4,5,6-hexahydro-2,6-methanobenzo[d]azocine]
EC50 [1]: 5990 ± 1220 nM | Emax [1]: 72.3 ± 2.85% | Emax [2]: 94.7 ± 4.48% | EC50 [2]: 5490 ± 434 nM

C[C@@H]1[C@@H]2Cc3ccc(O)cc3[C@@]1(CCN1CCN(C(c3ccc(F)cc3)c3ccc(F)cc3)CC1)CCN2C [Compound 15, (2S,6S,11S)-6-(2-(4-(bis(4-fluoro-phenyl)methyl)piperazin-1-yl)ethyl)-3,11-dimethyl-1,2,3,4,5,6-hexahydro-2,6-methanobenzo[d]azocin-8-ol]
EC50 [3]: 3460 ± 314 nM | Emax [3]: 97.7 ± 1.76%

C[C@H]1[C@H]2Cc3ccc(O)cc3[C@]1(CCNC(=O)[C@@H]1CCCCN1)CCN2C [Compound 70, (S)-N-(2-((2R,6R,11R)-8-hydroxy-3,11-dimethyl-2,3,4,5-tetrahydro-2,6-methano-benzo[d]azocin-6(1H)-yl)ethyl)-piperidine-2-carboxamide]
EC50 [3]: 783 ± 208 nM | Emax [3]: 27.7 ± 0.88%

COc1ccc2c(c1)[C@@]1(CCOCc3ccccc3)CCN(C)[C@@H](C2)[C@H]1C [Compound 47, (2S,6R,11S)-6-(2-(benzyloxy)ethyl)-8-methoxy-3,11-dimethyl-1,2,3,4,5,6-hexahydro-2,6-methanobenzo[d]azocine]
EC50 [1]: 8990 ± 1630 nM | Emax [1]: 72.3 ± 3.84% | Emax [2]: 99.3 ± 0.67% | EC50 [2]: 3750 ± 207 nM

COc1ccc2c(c1)[C@]1(CCNCCCN3CCCC3=O)CCN(C)[C@H](C2)[C@@H]1C [Compound 57, 1-(3-((2-((2R,6R,11R)-8-methoxy-3,11-dimethyl-2,3,4,5-tetrahydro-2,6-methanobenzo-[d]azocin-6(1H)-yl)ethyl)amino)propyl)pyrrolidin-2-one]
EC50 [1]: 11300 ± 435 nM | Emax [1]: 70.7 ± 2.03% | Emax [2]: 118 ± 2% | EC50 [2]: 11400 ± 994 nM

C[C@H]1[C@H]2Cc3ccc(O)cc3[C@]1(CCNC(=O)NC(c1ccccc1)c1ccccc1)CCN2C [Compound 73, 1-Benzhydryl-3-(2-((2R,6R,11R)-8-hydroxy-3,11-dimethyl-2,3,4,5-tetrahydro-2,6-methanobenzo[d]azocin-6(1H)-yl)ethyl)urea]
EC50 [3]: 3.64 ± 0.88 nM | Emax [3]: 69.4 ± 1.22%

C[C@H]1[C@H]2Cc3ccc(O)cc3[C@]1(CCN(C)C)CCN2C [Compound 22, (2R,6R,11R)-6-(2-(dimethyl-amino)-ethyl)-3,11-dimethyl-1,2,3,4,5,6-hexahydro-2,6-methanobenzo[d]azocin-8-ol]
EC50 [3]: 1070 ± 143 nM | Emax [3]: 37.3 ± 1%

C[C@@H]1[C@@H]2Cc3ccc(O)cc3[C@@]1(CCN1CCC(N(C3CC3)S(=O)(=O)c3ccccc3)CC1)CCN2C [Compound 14, N-cyclopropyl-N-(1-(2-((2S,6S,11S)-8-hydroxy-3,11-dimethyl-2,3,4,5-tetrahydro-2,6-methanobenzo[d]azocin-6(1H)-yl)ethyl)piperidin-4-yl)-benzenesulfonamide]
EC50 [3]: 11900 ± 1220 nM | Emax [3]: 69 ± 0.58%

C[C@H]1[C@H]2Cc3ccc(O)cc3[C@]1(CCNC(=O)NS(=O)(=O)c1ccc(F)cc1)CCN2CC1CC1 [Compound 19, N-((2-((2R,6R,11R)-3-(cyclopropyl-methyl)-8-hydroxy-11-methyl-2,3,4,5-tetrahydro-2,6-methanobenzo[d]azocin-6(1H)-yl)ethyl)carbamoyl)-4-fluoro-benzenesulfonamide]
EC50 [3]: 17.3 ± 6.99 nM | Emax [3]: 10.1 ± 0.98%

C[C@H]1[C@H]2Cc3ccc(O)cc3[C@]1(CCNCc1ccco1)CCN2CC1CC1 [Compound 17, (2R,6R,11R)-3-(cyclopropylmethyl)-6-(2-((furan-2-ylmethyl)amino)ethyl)-11-methyl-1,2,3,4,5,6-hexahydro-2,6-methanobenzo[d]azocin-8-ol]
Emax [3]: -0.88 ± 0.94%

COc1ccc2c(c1)[C@@]1(CCNCC(=O)O)CCN(CC3CC3)[C@@H](C2)[C@H]1C [Compound 39, (2-((2S,6S,11S)-3-(cyclopropylmethyl)-8-methoxy-11-methyl-2,3,4,5-tetrahydro-2,6-methanobenzo[d]azocin-6(1H)-yl)ethyl)glycine]
Emax [3]: 19.7 ± 3.18%

C[C@H]1[C@H]2Cc3ccc(O)cc3[C@]1(CCN1CCCC1)CCN2C [Compound 20, (2R,6R,11R)-3,11-dimethyl-6-(2-(pyrrolidin-1-yl)ethyl)-1,2,3,4,5,6-hexahydro-2,6-methanobenzo[d]azocin-8-ol]
Emax [3]: 108 ± 10.1%

C[C@H]1[C@H]2Cc3ccc(O)cc3[C@]1(CCNC(=O)[C@@H]1CCC(=O)N1)CCN2CC1CC1 [Compound 81, (S)-N-(2-((2R,6R,11R)-3-(cyclopropyl-methyl)-8-hydroxy-11-methyl-2,3,4,5-tetrahydro-2,6-methanobenzo[d]azocin-6(1H)-yl)ethyl)-5-oxopyrrolidine-2-carboxamide]
EC50 [3]: 18.1 ± 4.15 nM | Emax [3]: 10.8 ± 0.96%

C[C@H]1[C@H]2Cc3ccc(O)cc3[C@]1(CCNC(=O)Nc1cccc(Oc3ccccc3)c1)CCN2C [Compound 74, 1-(2-((2R,6R,11R)-8-hydroxy-3,11-dimethyl-2,3,4,5-tetrahydro-2,6-methanobenzo[d]azocin-6(1H)-yl)ethyl)-3-(3-phenoxyphenyl)urea]
EC50 [3]: 18.4 ± 2.09 nM | Emax [3]: 52.1 ± 1.88%

COc1ccc2c(c1)[C@]1(CCNC(=O)[C@@H]3CCC(=O)N3)CCN(C)[C@H](C2)[C@@H]1C [Compound 84, (S)-N-(2-((2R,6R,11R)-8-methoxy-3,11-dimethyl-2,3,4,5-tetrahydro-2,6-methano-benzo[d]azocin-6(1H)-yl)ethyl)-5-oxopyrrolidine-2-carboxamide]
EC50 [3]: 12400 ± 540 nM | Emax [3]: 32.4 ± 0.76%

C[C@H]1[C@H]2Cc3ccc(O)cc3[C@]1(CCNC(=O)[C@@H]1CCCN1)CCN2C [Compound 71, (S)-N-(2-((2R,6R,11R)-8-hydroxy-3,11-dimethyl-2,3,4,5-tetrahydro-2,6-methano-benzo[d]azocin-6(1H)-yl)ethyl)-pyrrolidine-2-carboxamide]
EC50 [3]: 1580 ± 177 nM | Emax [3]: 36 ± 0.58%

COc1ccc2c(c1)[C@@]1(CCN[C@H](C(=O)O)C(C)C)CCN(CC3CC3)[C@@H](C2)[C@H]1C [Compound 41, (2-((2S,6S,11S)-3-(cyclopropylmethyl)-8-methoxy-11-methyl-2,3,4,5-tetrahydro-2,6-methanobenzo[d]azocin-6(1H)-yl)ethyl)-L-valine]
Emax [3]: 0%

C[C@H]1[C@H]2Cc3ccc(O)cc3[C@]1(CCNCc1ccc(F)cc1)CCN2CC1CC1 [Compound 16, (2R,6R,11R)-3-(cyclopropylmethyl)-6-(2-((4-fluorobenzyl)amino)ethyl)-11-methyl-1,2,3,4,5,6-hexahydro-2,6-methanobenzo[d]azocin-8-ol]
EC50 [3]: 3.04 ± 0.26 nM | Emax [3]: 10.8 ± 1.25%

C[C@H]1[C@H]2Cc3ccc(O)cc3[C@]1(CCNC(=O)NCC(c1ccccc1)c1ccccc1)CCN2C [Compound 77, 1-(2,2-diphenylethyl)-3-(2-((2R,6R,11R)-8-hydroxy-3,11-dimethyl-2,3,4,5-tetrahydro-2,6-methanobenzo[d]azocin-6(1H)-yl)ethyl)urea]
EC50 [3]: 4.61 ± 0.75 nM | Emax [3]: 57.1 ± 2.33%

COc1ccc2c(c1)[C@]1(CCNC(=O)NS(=O)(=O)c3ccc(F)cc3)CCN(C)[C@H](C2)[C@@H]1C [Compound 67, 4-fluoro-N-((2-((2R,6R,11R)-8-methoxy-3,11-dimethyl-2,3,4,5-tetrahydro-2,6-methanobenzo[d]azocin-6(1H)-yl)ethyl)-carbamoyl)benzene-sulfonamide]
EC50 [3]: 2450 ± 692 nM | Emax [3]: 26.3 ± 3.38%
